Results published in patent publication US8772266B2, “Fungicide pyrazole carboxamides derivates” (Bayer Cropscience AG, priority 2009, dated 2014).

Experiments:
Sphaerotheca fuliginea = experiment: In vivo preventive test on Sphaerotheca fuliginea (cucumber), Example G; details: 10 ppm of active ingredient, evaluated 7 days after inoculation
From the text: After the spray coating has dried on, the plants are inoculated with an aqueous spore suspension of Sphaerotheca fuliginea.

[1] = logP by HPLC on reversed-phase column (EEC Directive 79/831 Annex V.A8); details: 40° C., 0.1% aqueous formic acid and acetonitrile, linear gradient 10% to 90% acetonitrile
[2] = HPLC on reversed-phase column (C 18)
[3] = HPLC, reversed-phase column (C 18)

Row | Compound | disease control (Sphaerotheca fuliginea) [%] | logP [1, 3] | further results
1 | Cn1nc(C(F)F)c(C(=O)N(Cc2c(Cl)cccc2C2CC2)C2CC2)c1F [Example 113] | 100 | – | –
2 | CC(c1cccc(I)c1)N(C(=O)c1c(C(F)F)nn(C)c1F)C1CC1 (centres unmarked) [Example 103] | – | – | logP [1, 2]: 3.76
3 | Cn1nc(C(F)F)c(C(=O)N(Cc2c(Br)cccc2Br)C2CC2)c1F [Example 92] | – | 3.51 | –
4 | Cc1cc(Cl)c(CN(C(=O)c2c(C(F)F)nn(C)c2F)C2CC2)cc1C [Example 79] | – | 3.85 | –
5 | Cn1nc(C(F)F)c(C(=O)N(Cc2ccccc2C2CCCC2)C2CC2)c1F [Example 82] | 100 | 4.2 | –
6 | Cn1nc(C(F)F)c(C(=O)N(C2CC2)C2CCc3cccc(Cl)c32)c1F (centres unmarked) [Example 109] | – | – | logP [1, 2]: 3.42
7 | Cn1nc(C(F)F)c(C(=O)N(Cc2ccccc2C(C)(C)C)C2CC2)c1F [Example 76] | – | 4.06 | –
8 | CCCCc1ccc(Cl)cc1CN(C(=O)c1c(C(F)F)nn(C)c1F)C1CC1 [Example 119] | 100 | – | –
9 | Cn1nc(C(F)F)c(C(=O)N(Cc2ccccc2Oc2ccc(F)cc2)C2CC2)c1F [Example 110] | – | – | logP [1, 2]: 3.85
10 | CCCCc1cccc(Cl)c1CN(C(=O)c1c(C(F)F)nn(C)c1F)C1CC1 [Example 115] | 100 | – | –
11 | CCC(c1ccc(Cl)cc1Cl)N(C(=O)c1c(C(F)F)nn(C)c1F)C1CC1 (centres unmarked) [Example 69] | – | 4.2 | –
12 | Cn1nc(C(F)F)c(C(=O)N(Cc2ccc(Cl)cc2Cl)C2CC2)c1Cl [Example 59] | – | 3.89 | –
13 | CC(C)c1ccc(F)c(F)c1CN(C(=O)c1c(C(F)F)nn(C)c1F)C1CC1 [Example 136] | 100 | – | –
14 | CCC(C)c1ccccc1CN(C(=O)c1c(C(F)F)nn(C)c1F)C1CC1 (centres unmarked) [Example 156] | – | – | logP [1, 2]: 4.06
15 | CC(c1ccc(Cl)cc1Cl)N(C(=O)c1c(C(F)F)nn(C)c1F)C1CC1 (centres unmarked) [Example 70] | 100 | 3.83 | –
16 | Cc1cc(Br)c(CN(C(=O)c2c(C(F)F)nn(C)c2F)C2CC2)cc1F [Example 75] | – | 3.73 | –
17 | CC(c1cccc2c1CCC(C)(C)C2)N(C(=O)c1c(C(F)F)nn(C)c1F)C1CC1 (single isomer, unassigned) [Example 44a] | 100 | – | –
18 | Cn1nc(C(F)F)c(C(=O)N(Cc2ccccc2[Si](C)(C)C)C2CC2)c1Cl [Example 37] | – | 4.49 | –
19 | CC(c1ccccc1C(F)(F)F)N(C(=O)c1c(C(F)F)nn(C)c1F)C1CC1 (centres unmarked) [Example 66] | – | 3.42 | –
20 | CC(c1ccccc1OC(F)(F)F)N(C(=O)c1c(C(F)F)nn(C)c1F)C1CC1 (centres unmarked) [Example 91] | – | 3.6 | –
21 | CC(c1ccc(Oc2ccccc2)cc1)N(C(=O)c1c(C(F)F)nn(C)c1F)C1CC1 (centres unmarked) [Example 65] | – | 4.14 | –
22 | Cc1cccc(C)c1CN(C(=O)c1c(C(F)F)nn(C)c1F)C1CC1 [Example 108] | – | – | logP [1, 2]: 3.31
23 | CC(c1ccc(C(F)(F)c2ccccc2)cc1)N(C(=O)c1c(C(F)F)nn(C)c1F)C1CC1 (centres unmarked) [Example 77] | – | 4.23 | –
24 | Cn1nc(C(F)F)c(C(=O)N(Cc2ccccc2I)C2CC2)c1Cl [Example 35] | – | 3.6 | –
25 | CC(C)CC(C)c1ccccc1CN(C(=O)c1c(C(F)F)nn(C)c1F)C1CC1 (centres unmarked) [Example 154] | – | – | logP [1, 2]: 4.82
26 | CC(c1cccc(C(F)(F)c2ccccc2)c1)N(C(=O)c1c(C(F)F)nn(C)c1F)C1CC1 (centres unmarked) [Example 78] | – | 4.15 | –

Row | Compound | disease control (Sphaerotheca fuliginea) [%] | logP [1, 3] | further results
27 | CC(c1ccccc1Br)N(C(=O)c1c(C(F)F)nn(C)c1F)C1CC1 (centres unmarked) [Example 98] | – | 3.31 | –
28 | Cn1nc(C(F)F)c(C(=O)N(Cc2c(F)cccc2C2CC2)C2CC2)c1F [Example 130] | 100 | – | –
29 | CC(c1ccccc1)N(C(=O)c1c(C(F)F)nn(C)c1F)C1CC1 (centres unmarked) [Example 95] | – | 3.06 | –
30 | Cn1nc(C(F)F)c(C(=O)N(C2CC2)C2CCOc3ccccc32)c1F (centres unmarked) [Example 86] | – | 2.84 | –
31 | Cn1nc(C(F)F)c(C(=O)N(Cc2c(Cl)cccc2C2CCCC2)C2CC2)c1F [Example 141] | 100 | – | –
32 | CCCCc1ccc(F)c(F)c1CN(C(=O)c1c(C(F)F)nn(C)c1F)C1CC1 [Example 126] | 100 | – | –
33 | CC(c1ccccc1C(F)(F)F)N(C(=O)c1c(C(F)F)nn(C)c1Cl)C1CC1 (centres unmarked) [Example 55] | – | 3.64 | –
34 | CC(c1ncc(Cl)cc1Cl)N(C(=O)c1c(C(F)F)nn(C)c1Cl)C1CC1 (centres unmarked) [Example 58] | – | 3.69 | –
35 | Cc1cc(C)c2c(c1)C(N(C(=O)c1c(C(F)F)nn(C)c1F)C1CC1)CCC2 (centres unmarked) [Example 74] | – | 4.25 | –
36 | Cn1nc(C(F)F)c(C(=O)N(Cc2c(C3CCCC3)ccc(F)c2F)C2CC2)c1F [Example 139] | 100 | – | –
37 | Cn1nc(C(F)F)c(C(=O)N(Cc2c(C(F)(F)F)ccc(F)c2C(F)(F)F)C2CC2)c1F [Example 117] | 100 | – | –
38 | CC(c1cc(Br)cc(Br)c1)N(C(=O)c1c(C(F)F)nn(C)c1F)C1CC1 (racemic) [Example 106] | – | – | logP [1, 2]: 4.26
39 | Cn1nc(C(F)F)c(C(=O)N(Cc2c(Cl)cccc2[Si](C)(C)C)C2CC2)c1Cl [Example 151] | – | – | logP [1, 2]: 4.82
40 | CCCCC(c1ccc(C(F)(F)F)cc1)N(C(=O)c1c(C(F)F)nn(C)c1F)C1CC1 (centres unmarked) [Example 93] | – | 4.8 | –
41 | Cn1nc(C(F)F)c(C(=O)N(Cc2cccc(-c3ccccc3)c2)C2CC2)c1Cl [Example 67] | – | 3.94 | –
42 | CCCCC1Cc2ccccc2C1N(C(=O)c1c(C(F)F)nn(C)c1F)C1CC1 (centres unmarked) [Example 100] | – | – | logP [1, 2]: 4.85
43 | Cn1nc(C(F)F)c(C(=O)N(Cc2ccccc2C(F)(F)F)C2CC2)c1Cl [Example 56] | – | 3.58 | –
44 | Cn1nc(C(F)F)c(C(=O)N(Cc2cccc(C(F)(F)F)c2Cl)C2CC2)c1F [Example 104] | – | – | logP [1, 2]: 3.64
45 | CC(c1ccc(Oc2ccccc2)cc1)N(C(=O)c1c(C(F)F)nn(C)c1Cl)C1CC1 (centres unmarked) [Example 60] | – | 4.31 | –
46 | CCc1ccccc1CN(C(=S)c1c(C(F)F)nn(C)c1F)C1CC1 [Example 133] | – | – | logP [1, 2]: 4.06
47 | CC(C)c1ccccc1CN(C(=O)c1c(C(F)F)nn(C)c1Cl)C1CC1 [Example 34] | – | 3.81 | –
48 | CC(C)c1ccc(F)cc1CN(C(=O)c1c(C(F)F)nn(C)c1F)C1CC1 [Example 135] | 100 | – | –
49 | Cn1nc(C(F)F)c(C(=O)N(C2CC2)C2CC(C)(C)c3ccccc32)c1F (centres unmarked) [Example 85] | – | 3.87 | –
50 | CC(C)Cc1ccc(Cl)cc1CN(C(=O)c1c(C(F)F)nn(C)c1F)C1CC1 [Example 120] | 100 | – | –
51 | CC(C)c1ccc(F)cc1CN(C(=O)c1c(C(F)F)nn(C)c1Cl)C1CC1 [Example 146] | – | – | logP [1, 2]: 3.92
52 | Cn1nc(C(F)F)c(C(=O)N(Cc2c(F)cccc2C2CCCC2)C2CC2)c1F [Example 137] | 100 | – | –

Row | Compound | disease control (Sphaerotheca fuliginea) [%] | logP [1, 3] | further results
53 | CC(C)Cc1cccc(Cl)c1CN(C(=O)c1c(C(F)F)nn(C)c1Cl)C1CC1 [Example 150] | – | – | logP [1, 2]: 4.74
54 | Cn1nc(C(F)F)c(C(=O)N(Cc2ncc(C(F)(F)F)cc2Cl)C2CC2)c1Cl [Example 57] | – | 3.55 | –
55 | CC(C)Cc1cccc(F)c1CN(C(=O)c1c(C(F)F)nn(C)c1F)C1CC1 [Example 127] | 100 | – | –
56 | Cc1cccc2c1CCC2N(C(=O)c1c(C(F)F)nn(C)c1F)C1CC1 (racemic) [Example 102] | – | – | logP [1, 2]: 3.55
57 | CCc1cccc(Cl)c1CN(C(=O)c1c(C(F)F)nn(C)c1F)C1CC1 [Example 124] | 100 | – | –
58 | Cn1nc(C(F)F)c(C(=O)N(Cc2cc(Br)ccc2I)C2CC2)c1F [Example 21] | – | 3.94 | –
59 | Cn1nc(C(F)F)c(C(=O)N(Cc2cc(Br)c3c(c2Br)OCO3)C2CC2)c1F [Example 87] | – | 3.44 | –
60 | CCCCc1cccc(F)c1CN(C(=O)c1c(C(F)F)nn(C)c1F)C1CC1 [Example 128] | 100 | – | –
61 | Cn1nc(C(F)F)c(C(=O)N(Cc2cc(F)ccc2[Si](C)(C)C)C2CC2)c1F [Example 118] | 100 | – | –
62 | CCc1cccc(CC)c1CN(C(=O)c1c(C(F)F)nn(C)c1F)C1CC1 [Example 88] | – | 4.01 | –
63 | Cn1nc(C(F)F)c(C(=O)N(C2CC2)C2CCCc3cccc(Br)c32)c1F (centres unmarked) [Example 97] | – | 3.78 | –
64 | Cn1nc(C(F)F)c(C(=O)N(Cc2cc(F)ccc2C2CCCC2)C2CC2)c1F [Example 138] | 100 | – | –
65 | CCCCC(c1ccccc1)N(C(=O)c1c(C(F)F)nn(C)c1F)C1CC1 (centres unmarked) [Example 94] | – | 4.26 | –
66 | Cn1nc(C(F)F)c(C(=O)N(Cc2ccccc2C2CC2C2CC2)C2CC2)c1F (centres unmarked) [Example 155] | – | – | logP [1, 2]: 4.25
67 | Cn1nc(C(F)F)c(C(=O)N(Cc2c(Cl)cccc2I)C2CC2)c1F [Example 19] | – | 3.58 | –
68 | CCC(c1cc(Cl)cc(Cl)c1)N(C(=O)c1c(C(F)F)nn(C)c1F)C1CC1 (centres unmarked) [Example 71] | – | 4.41 | –
69 | CC(C)c1ccccc1CN(C(=O)c1c(C(F)F)nn(C)c1F)C1CC1C (centres unmarked) [Example 157] | 100 | – | –
70 | CC(C)Cc1cc(Cl)ccc1CN(C(=O)c1c(C(F)F)nn(C)c1F)C1CC1 [Example 31] | – | 4.59 | –
71 | CC(C)Cc1ccc(F)c(F)c1CN(C(=O)c1c(C(F)F)nn(C)c1F)C1CC1 [Example 112] | 100 | – | –
72 | CCCCc1ccc(F)cc1CN(C(=O)c1c(C(F)F)nn(C)c1F)C1CC1 [Example 121] | 100 | – | –
73 | Cn1nc(C(F)F)c(C(=O)N(Cc2cc(F)ccc2C2CC2)C2CC2)c1F [Example 123] | 100 | – | –
74 | Cn1nc(C(F)F)c(C(=O)N(Cc2c(Cl)cc(Cl)cc2Cl)C2CC2)c1F [Example 107] | – | – | logP [1, 2]: 3.99
75 | Cn1nc(C(F)F)c(C(=O)N(Cc2c(Cl)cccc2[Si](C)(C)C)C2CC2)c1F [Example 116] | 100 | – | –
76 | CC(c1cc(C(F)(F)F)ccc1Cl)N(C(=O)c1c(C(F)F)nn(C)c1F)C1CC1 (centres unmarked) [Example 96] | – | 3.89 | –
77 | Cn1nc(C(F)F)c(C(=O)N(Cc2cc(Cl)ccc2C2CCCC2)C2CC2)c1Cl [Example 152] | – | – | logP [1, 2]: 4.92
78 | Cn1nc(C(F)F)c(C(=S)N(Cc2ncc(C(F)(F)F)cc2Cl)C2CC2)c1F [Example 7] | – | 4.11 | –
